Reference: ChEMBL document CHEMBL1130398 (J Med Chem, 1997)
pIC50: −log10 of the molar value.

How the values were obtained:
Acetylcholinesterase [1] = biological target: T1, Acetylcholinesterase (Rattus norvegicus, UniProt P37136)
T1 sequence (P37136 whole entry): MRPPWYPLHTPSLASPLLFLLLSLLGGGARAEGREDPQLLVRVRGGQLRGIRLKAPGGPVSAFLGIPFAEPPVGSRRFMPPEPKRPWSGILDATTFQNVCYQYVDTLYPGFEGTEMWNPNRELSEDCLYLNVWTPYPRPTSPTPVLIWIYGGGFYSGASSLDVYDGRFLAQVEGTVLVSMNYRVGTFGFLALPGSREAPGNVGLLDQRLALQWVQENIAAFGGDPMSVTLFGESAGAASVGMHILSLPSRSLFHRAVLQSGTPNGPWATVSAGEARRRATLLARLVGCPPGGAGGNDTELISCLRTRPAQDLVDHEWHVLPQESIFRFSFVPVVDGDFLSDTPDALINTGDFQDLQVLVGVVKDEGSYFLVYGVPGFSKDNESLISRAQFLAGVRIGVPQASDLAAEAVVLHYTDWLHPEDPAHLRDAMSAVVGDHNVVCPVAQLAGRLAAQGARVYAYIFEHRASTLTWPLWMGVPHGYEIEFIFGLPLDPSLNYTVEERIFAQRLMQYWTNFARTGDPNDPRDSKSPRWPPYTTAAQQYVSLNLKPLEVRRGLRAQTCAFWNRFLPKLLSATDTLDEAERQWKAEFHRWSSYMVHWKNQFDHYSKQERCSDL
Description: In vitro inhibition of acetylcholinesterase, isolated from rat brain.

Cholinesterase [2] = biological target: T2, Cholinesterase (Homo sapiens, UniProt P06276)
Description: In vitro inhibition of Butyrylcholinesterase from human plasma.

[3] = biological target: Sodium-dependent serotonin transporter (Rattus norvegicus, UniProt P31652)
[4] = biological target: Norepinephrine transporter (Rattus norvegicus, UniProt Q9WTR4)
Description: Inhibition of neuronal uptake of Noradrenaline in rat brain homogenate

Acetylcholinesterase [5] = biological target: T1, Acetylcholinesterase; assay: Inhibitory activity against acetylcholinesterase, isolated from rat brain at 100 uM; No block
Cholinesterase [6] = biological target: T2, Cholinesterase; assay: Activity against Butyrylcholinesterase (BChE) from human plasma at 100 uM; No block; format: cell-free
Cholinesterase [7] = biological target: T2, Cholinesterase; assay: Activity against Butyrylcholinesterase (BChE) from human plasma at 100 uM; no block; format: cell-free

Chain of Sodium-dependent serotonin transporter (P31652 whole entry): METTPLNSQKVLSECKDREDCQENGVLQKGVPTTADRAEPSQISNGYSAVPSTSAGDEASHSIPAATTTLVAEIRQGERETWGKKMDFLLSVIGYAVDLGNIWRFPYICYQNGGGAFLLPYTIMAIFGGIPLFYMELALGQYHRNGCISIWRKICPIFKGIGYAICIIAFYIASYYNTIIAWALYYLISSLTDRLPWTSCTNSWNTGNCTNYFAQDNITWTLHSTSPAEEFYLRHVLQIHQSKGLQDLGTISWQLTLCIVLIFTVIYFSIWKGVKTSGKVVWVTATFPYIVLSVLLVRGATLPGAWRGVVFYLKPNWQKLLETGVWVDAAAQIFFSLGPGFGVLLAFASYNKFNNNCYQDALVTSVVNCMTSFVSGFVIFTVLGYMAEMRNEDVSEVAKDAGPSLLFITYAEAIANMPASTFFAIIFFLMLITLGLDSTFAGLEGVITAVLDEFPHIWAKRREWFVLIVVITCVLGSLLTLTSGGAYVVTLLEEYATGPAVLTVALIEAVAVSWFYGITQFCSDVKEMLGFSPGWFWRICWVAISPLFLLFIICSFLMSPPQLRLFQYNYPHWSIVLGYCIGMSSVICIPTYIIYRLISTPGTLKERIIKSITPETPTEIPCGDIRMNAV
T2 sequence (P06276 whole entry): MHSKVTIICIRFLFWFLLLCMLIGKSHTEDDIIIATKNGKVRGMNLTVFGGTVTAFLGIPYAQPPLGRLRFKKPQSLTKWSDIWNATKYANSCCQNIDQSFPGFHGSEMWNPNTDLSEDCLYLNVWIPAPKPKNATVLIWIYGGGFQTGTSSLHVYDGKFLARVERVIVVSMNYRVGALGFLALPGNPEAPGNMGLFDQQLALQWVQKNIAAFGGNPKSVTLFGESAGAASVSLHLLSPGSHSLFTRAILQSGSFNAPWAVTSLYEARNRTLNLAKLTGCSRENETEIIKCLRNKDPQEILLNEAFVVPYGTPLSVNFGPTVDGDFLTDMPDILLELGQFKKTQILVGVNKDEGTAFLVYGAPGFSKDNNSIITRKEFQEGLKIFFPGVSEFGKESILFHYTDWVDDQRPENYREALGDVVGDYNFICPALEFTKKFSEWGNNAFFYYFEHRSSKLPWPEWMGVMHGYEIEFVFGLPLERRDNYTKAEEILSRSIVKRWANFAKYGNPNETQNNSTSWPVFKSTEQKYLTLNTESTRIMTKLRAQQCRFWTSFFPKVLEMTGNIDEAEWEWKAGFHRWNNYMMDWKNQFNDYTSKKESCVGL
Chain of Norepinephrine transporter (Q9WTR4 whole entry): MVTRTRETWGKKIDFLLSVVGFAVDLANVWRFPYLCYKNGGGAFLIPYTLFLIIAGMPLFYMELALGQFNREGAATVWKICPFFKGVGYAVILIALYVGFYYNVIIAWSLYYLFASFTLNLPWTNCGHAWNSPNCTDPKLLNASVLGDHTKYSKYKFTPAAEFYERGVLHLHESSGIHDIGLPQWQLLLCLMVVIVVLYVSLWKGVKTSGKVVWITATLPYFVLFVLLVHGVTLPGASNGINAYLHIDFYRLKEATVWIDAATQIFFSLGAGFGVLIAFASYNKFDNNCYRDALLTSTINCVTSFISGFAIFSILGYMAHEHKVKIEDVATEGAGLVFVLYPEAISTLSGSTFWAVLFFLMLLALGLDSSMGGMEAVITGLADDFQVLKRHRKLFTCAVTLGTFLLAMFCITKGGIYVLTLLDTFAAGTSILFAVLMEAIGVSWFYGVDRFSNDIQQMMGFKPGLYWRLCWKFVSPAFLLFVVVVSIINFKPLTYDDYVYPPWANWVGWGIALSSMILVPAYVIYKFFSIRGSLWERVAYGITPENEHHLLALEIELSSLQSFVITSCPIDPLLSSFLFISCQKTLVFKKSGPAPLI

CC1Cc2c(nc3ccccc3c2N)C1(C)O (centres undefined)
pIC50 (Acetylcholinesterase [1]): 3.87 | pIC50 (Cholinesterase [2]): 4.91 | pIC50 [3]: 5.36

Nc1c2c(nc3ccccc13)-c1ccccc1NCC2
pIC50 (Acetylcholinesterase [1]): 4.16 | pIC50 (Cholinesterase [2]): 4.72 | pIC50 [4]: 5.52 | pIC50 [3]: 5.38

Nc1c2ccccc2nc2c1cnc1cc(Cl)ccc12
IC50 (Acetylcholinesterase [5]): No block | IC50 (Cholinesterase [6]): No block | pIC50 [4]: 6.70 | pIC50 [3]: < 4.02

COc1ccc2c(c1)CCc1c-2nc2ccccc2c1N
IC50 (Cholinesterase [7]): no block | pIC50 (Acetylcholinesterase [1]): 4.32 | pIC50 [4]: 5.85 | pIC50 [3]: 5.24

Nc1c2c(nc3ccccc13)CCCc1ccccc1-2
pIC50 (Cholinesterase [2]): 4.58 | pIC50 [3]: 7.70

Nc1c2c(nc3ccccc13)CCC2
pIC50 (Cholinesterase [2]): 7.28 | pIC50 [4]: 6.22 | pIC50 [3]: 4.68

Nc1c2c(nc3ccccc13)CCCCCC2
pIC50 (Cholinesterase [2]): 5.64 | pIC50 [4]: 6.10 | pIC50 [3]: 5.96

CCCCC1=C(C)Cc2c1nc1ccccc1c2N
pIC50 (Acetylcholinesterase [1]): 4.60 | pIC50 (Cholinesterase [2]): 4.38 | pIC50 [3]: 4.89

CC1=C(C)c2nc3ccccc3c(N)c2C1
pIC50 (Acetylcholinesterase [1]): 5.46 | pIC50 (Cholinesterase [2]): 5.23 | pIC50 [3]: 5.29

CCCCC1(O)c2nc3ccccc3c(N)c2CC1C (centres undefined)
pIC50 (Acetylcholinesterase [1]): 4.04 | pIC50 (Cholinesterase [2]): 4.09 | pIC50 [4]: 4.92 | pIC50 [3]: 5.15

COc1ccc2c(c1)CCCc1c-2nc2ccccc2c1N
pIC50 (Cholinesterase [2]): < 4.00 | pIC50 [4]: 5.44 | pIC50 [3]: 6.15

Nc1c2c(nc3ccccc13)-c1ccccc1NCCC2
pIC50 (Acetylcholinesterase [1]): 3.41 | pIC50 (Cholinesterase [2]): 5.17 | pIC50 [4]: 5.60 | pIC50 [3]: 5.16

Nc1c2c(nc3ccccc13)CCCCC2
pIC50 (Acetylcholinesterase [1]): 7.41 | pIC50 (Cholinesterase [2]): 7.85 | pIC50 [4]: 5.16 | pIC50 [3]: 5.44

CC12CCC(c3c1nc1ccccc1c3N)C2(C)C (centres undefined)
pIC50 (Acetylcholinesterase [1]): 3.96 | pIC50 (Cholinesterase [2]): 4.06 | pIC50 [3]: 4.89

Nc1c2c(nc3ccccc13)-c1ccccc1CCC2
pIC50 (Acetylcholinesterase [1]): 3.78 | pIC50 (Cholinesterase [2]): 4.44 | pIC50 [4]: 5.74 | pIC50 [3]: 5.33

Nc1c2c(nc3ccccc13)-c1cccc(Cl)c1CC2
pIC50 (Acetylcholinesterase [1]): 3.84 | pIC50 (Cholinesterase [2]): 4.99 | pIC50 [4]: 4.39 | pIC50 [3]: 4.84

Nc1c2c(nc3ccccc13)C1CCC2C1 (centres undefined)
pIC50 (Cholinesterase [2]): 7.39 | pIC50 [4]: 5.21 | pIC50 [3]: 6.70

Nc1c2c(nc3ccccc13)-c1ccccc1C2
pIC50 (Cholinesterase [2]): 5.51 | pIC50 [4]: 5.64 | pIC50 [3]: 5.66

Nc1c2c(nc3ccccc13)-c1ccccc1CC2
pIC50 (Cholinesterase [2]): 5.48 | pIC50 [4]: 4.92 | pIC50 [3]: 5.34
